# “Also recorded” adds a separate entry of the source.
# What was measured:
# [1] = system: G-protein Gi1α; details: literature (Galbiati et al., Biochem J 313:717-720); cited from earlier work
# [2] = system: alpha-smooth muscle actin (α-SMA); assay: BioMAP human primary cell system mimicking myofibroblast development: alpha-smooth muscle actin level; format: cell-based; details: human primary lung fibroblasts stimulated with TGF-β and TNF-α, 24 hours; 2.6, 7.8, 23 and 70 μM; dose-dependent (FIG. 4)
# Protocol: Phenotypic profiling, including antifibrotic activity, was conducted across 12 human primary cell-based systems as part of DiscoverX's BioMAP Diversity Plus program. These systems are designed to model complex human tissue and disease biology of the vasculature, skin, lung, and inflammatory tissues. […] Cell-based activated systems were incubated with pure N-acetylhistamine for 24 to 72 hours. Protein-based biomarkers from activated cell systems were measured and compared with controls. Biomarker activities were annotated when 2 or more consecutive concentrations change in the same directions relative to vehicle controls, were outside of the significance envelope and had at least one concentration with an effect size >20% (log 10 ratio)>0.1.
# In our study, N-acetylhistamine, an […] involved in histadine metabolism, caused a significant and dose-dependent decrease in alpha-smooth muscle actin (α-SMA), a protein involved in muscle contraction, cell motility, structure and integrity and a marker for activated myofibroblast phenotype, in a human cell system mimicking myofibroblast development. In this system, human primary lung fibroblasts were stimulated with TGF-β and TNF-α and incubated with the test agent, drug control, or vehicle control for 24 hours. A negative, non-stimulated system was also included.
# [3] = room temperature; cited from earlier work
compound,measurement,setting,value
CCCCCCCCCCCCC(O)C(=O)O (stereo not drawn) [2-hydroxymyristate],effect on myristoylation of Gi1α,[1],inhibits
CC(=O)NCCc1c[nH]cn1 [N-acetylhistamine],change in alpha-smooth muscle actin (α-SMA) compared to internal controls,[2],significantly decreased; also recorded: lowered
same,stability of the powder,[3],stable at room temperature
